In patent US20080051429A1, “USE OF 4-AMINO-PIPERIDINES FOR TREATING SLEEP DISORDERS” (priority 2006, published 2008):

How the values were obtained:
Assay in all cases: R-SAT broad profiling
Assay type in all cases: cell-based
5-HT4 = target: T1, 5-HT4 (Homo sapiens, UniProt Q13639); conditions: read-out: pEC50/pIC50 (converted)
T1 construct: expressed in transfected cells
Protocol: (§1) The functional receptor assay, Receptor Selection and Amplification Technology (R-SAT), was used (with minor modifications from that previously described U.S. Pat. No. 5,707,798) to screen compounds for efficacy at the 5-HT2A receptor. Briefly, NIH3T3 cells were grown in 96 well tissue culture plates to 70-80% confluence. Cells were transfected for 12-16 hours with plasmid DNAs using superfect (Qiagen Inc.) as per manufacture's protocols. R-SAT's were generally performed with 50 ng/well of receptor and 20 ng/well of Beta-galactosidase plasmid DNA. All receptor and G-protein constructs used were in the pSI mammalian expression vector (Promega Inc) as described in U.S. Pat. No. 5,707,798. The 5HT2A receptor gene was amplified by nested PCR from brain cDNA using the oligodeoxynucleotides based on the published sequence (see Saltzman et. al. Biochem. Biophys. Res. Comm. 181:1469-78 (1991)). Large-scale transfections, cells were transfected for 12-16 hours, then trypsinized and frozen in DMSO. Frozen cells were later thawed, plated at 10,000-40,000 cells per well of a 96 well plate that contained drug. With both methods, cells were then grown in a humidified atmosphere with 5% ambient CO2 for five days. Media was then removed from the plates and marker gene activity was measured by the addition of the beta-galactosidase substrate ONPG (in PBS with 5% NP-40). The resulting colorimetric reaction was measured in a spectrophotometric plate reader (Titertek Inc.)at […]. All data were analyzed using the computer program XLFit (IDBSm). Efficacy is the percent maximal repression compared to repression by a control compound (ritanserin in the case of 5HT2A). pIC50 is the negative of the log(IC50), where IC50 is the calculated concentration in Molar that produces 50% maximal repression.
(§2) The R-SAT assay (described above in example 136) was used to investigate the selectivity of 2-(4-Methoxyphenyl)-N-(4-methylbenzyl)-N-(1-methylpiperidin-4-yl)acetamide hydrochloride.

5-HT6 = target: T2, 5-HT6 (Homo sapiens, UniProt P50406); conditions: read-out: pEC50/pIC50 (converted)
T2 construct: expressed in transfected cells
Protocol: as §1, §2

CCK-A = target: T3, CCK-A (Homo sapiens, UniProt P32238); conditions: agonist; read-out: pEC50/pIC50 (converted)
T3 construct: expressed in transfected cells; host or cells: NIH3T3
Protocol: as §1, §2

D1 = target: T4, D1 (Homo sapiens, UniProt P21728); conditions: read-out: pEC50/pIC50 (converted)
T4 construct: expressed in transfected cells; host or cells: NIH3T3
Protocol: as §1, §2

D3 = target: T5, D3 (Homo sapiens, UniProt P35462); conditions: read-out: pEC50/pIC50 (converted)
T5 construct: expressed in transfected cells; host or cells: NIH3T3
Protocol: as §1, §2

D5 = target: T6, D5 (Homo sapiens, UniProt P21918); conditions: read-out: pEC50/pIC50 (converted)
T6 construct: expressed in transfected cells; host or cells: NIH3T3
Protocol: as §1, §2

Histamine 1 = target: T7, Histamine 1 (Homo sapiens, UniProt P35367); conditions: read-out: pEC50/pIC50 (converted)
T7 construct: expressed in transfected cells; host or cells: NIH3T3
Protocol: as §1, §2

NK-1 = target: T8, NK-1 (Homo sapiens, UniProt P25103); conditions: agonist; read-out: pEC50/pIC50 (converted)
T8 construct: expressed in transfected cells; host or cells: NIH3T3
Protocol: as §1, §2

Vasopressin1A = target: T9, Vasopressin1A (Homo sapiens, UniProt P37288); conditions: agonist; read-out: pEC50/pIC50 (converted)
T9 construct: expressed in transfected cells; host or cells: NIH3T3
Protocol: as §1, §2

alpha 2C = target: T10, alpha 2C (Homo sapiens, UniProt P18825); conditions: read-out: pEC50/pIC50 (converted)
T10 construct: expressed in transfected cells; host or cells: NIH3T3
T10 sequence (P18825 1-462): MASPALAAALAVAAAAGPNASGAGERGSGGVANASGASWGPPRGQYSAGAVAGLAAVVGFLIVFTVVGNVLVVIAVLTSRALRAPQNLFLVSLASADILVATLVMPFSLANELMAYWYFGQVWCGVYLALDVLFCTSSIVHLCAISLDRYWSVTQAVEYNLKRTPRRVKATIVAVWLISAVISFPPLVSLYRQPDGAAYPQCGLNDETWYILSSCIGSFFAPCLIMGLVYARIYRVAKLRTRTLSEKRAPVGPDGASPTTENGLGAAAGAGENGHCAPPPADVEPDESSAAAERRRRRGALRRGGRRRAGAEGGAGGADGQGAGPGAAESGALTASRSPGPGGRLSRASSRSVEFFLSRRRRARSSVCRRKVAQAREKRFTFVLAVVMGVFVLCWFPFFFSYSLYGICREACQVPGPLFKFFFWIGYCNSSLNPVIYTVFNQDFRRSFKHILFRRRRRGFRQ
Protocol: as §1, §2

beta 2 = target: T11, beta 2 (Homo sapiens, UniProt P07550); conditions: read-out: pEC50/pIC50 (converted)
T11 construct: expressed in transfected cells; host or cells: NIH3T3
Protocol: as §1, §2

m1 = target: T12, m1 (Homo sapiens, UniProt P11229); conditions: read-out: pEC50/pIC50 (converted)
T12 construct: expressed in transfected cells; host or cells: NIH3T3
T12 sequence (P11229 1-460): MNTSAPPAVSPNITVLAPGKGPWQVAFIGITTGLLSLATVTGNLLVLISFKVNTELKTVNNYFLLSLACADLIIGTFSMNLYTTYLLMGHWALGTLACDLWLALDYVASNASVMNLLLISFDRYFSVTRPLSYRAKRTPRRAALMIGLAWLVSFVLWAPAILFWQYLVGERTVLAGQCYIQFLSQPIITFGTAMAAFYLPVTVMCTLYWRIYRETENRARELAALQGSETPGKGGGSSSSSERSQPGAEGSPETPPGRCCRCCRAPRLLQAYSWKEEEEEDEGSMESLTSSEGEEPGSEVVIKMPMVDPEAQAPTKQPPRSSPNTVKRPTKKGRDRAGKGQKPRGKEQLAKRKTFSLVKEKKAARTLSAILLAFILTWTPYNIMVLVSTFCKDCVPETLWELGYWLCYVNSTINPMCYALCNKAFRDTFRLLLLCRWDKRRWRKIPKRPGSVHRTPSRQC
Protocol: as §1, §2

m3 = target: T13, m3 (Homo sapiens, UniProt P20309); conditions: read-out: pEC50/pIC50 (converted)
T13 construct: expressed in transfected cells; host or cells: NIH3T3
Protocol: as §1, §2

T2 sequence (P50406 whole entry, species assumed): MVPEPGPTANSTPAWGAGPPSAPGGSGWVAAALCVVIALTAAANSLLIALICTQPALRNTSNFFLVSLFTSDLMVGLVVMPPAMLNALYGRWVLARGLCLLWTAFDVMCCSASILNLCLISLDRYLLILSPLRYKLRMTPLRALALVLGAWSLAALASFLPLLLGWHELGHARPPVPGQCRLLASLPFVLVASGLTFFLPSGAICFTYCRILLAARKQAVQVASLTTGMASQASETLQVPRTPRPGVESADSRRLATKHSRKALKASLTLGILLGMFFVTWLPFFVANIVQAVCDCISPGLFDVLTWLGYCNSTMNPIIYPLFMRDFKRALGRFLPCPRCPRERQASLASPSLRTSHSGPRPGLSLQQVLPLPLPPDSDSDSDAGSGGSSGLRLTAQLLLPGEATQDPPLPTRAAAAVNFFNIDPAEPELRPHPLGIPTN
T13 sequence (P20309 whole entry): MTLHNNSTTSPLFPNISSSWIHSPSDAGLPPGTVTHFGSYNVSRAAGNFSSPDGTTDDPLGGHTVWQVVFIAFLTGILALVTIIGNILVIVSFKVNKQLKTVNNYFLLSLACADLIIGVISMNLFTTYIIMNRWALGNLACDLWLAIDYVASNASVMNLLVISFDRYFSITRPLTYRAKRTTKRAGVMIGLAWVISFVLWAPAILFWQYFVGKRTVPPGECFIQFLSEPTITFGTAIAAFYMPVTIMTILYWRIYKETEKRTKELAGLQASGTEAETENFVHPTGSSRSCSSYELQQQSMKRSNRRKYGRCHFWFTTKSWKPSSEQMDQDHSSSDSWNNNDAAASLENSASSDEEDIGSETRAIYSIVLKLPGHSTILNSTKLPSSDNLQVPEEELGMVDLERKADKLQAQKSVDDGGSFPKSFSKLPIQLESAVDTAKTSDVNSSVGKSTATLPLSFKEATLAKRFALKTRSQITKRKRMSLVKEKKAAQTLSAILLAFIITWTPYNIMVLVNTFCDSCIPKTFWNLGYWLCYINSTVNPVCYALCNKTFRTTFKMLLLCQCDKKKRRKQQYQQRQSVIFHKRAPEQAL
T7 sequence (P35367 whole entry): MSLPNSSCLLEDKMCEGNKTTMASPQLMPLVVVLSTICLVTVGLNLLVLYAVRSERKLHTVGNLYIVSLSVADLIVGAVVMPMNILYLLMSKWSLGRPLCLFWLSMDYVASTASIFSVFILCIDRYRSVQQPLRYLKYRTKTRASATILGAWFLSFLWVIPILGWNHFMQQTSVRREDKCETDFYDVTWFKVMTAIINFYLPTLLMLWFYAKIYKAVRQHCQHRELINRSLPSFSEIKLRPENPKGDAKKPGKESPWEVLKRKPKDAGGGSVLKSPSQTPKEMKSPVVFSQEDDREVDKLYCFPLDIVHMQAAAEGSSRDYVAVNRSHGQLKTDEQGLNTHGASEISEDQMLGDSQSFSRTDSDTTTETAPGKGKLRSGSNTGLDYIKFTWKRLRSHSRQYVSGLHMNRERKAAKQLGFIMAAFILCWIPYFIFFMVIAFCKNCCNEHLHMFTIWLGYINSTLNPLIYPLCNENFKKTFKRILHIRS
T11 sequence (P07550 whole entry): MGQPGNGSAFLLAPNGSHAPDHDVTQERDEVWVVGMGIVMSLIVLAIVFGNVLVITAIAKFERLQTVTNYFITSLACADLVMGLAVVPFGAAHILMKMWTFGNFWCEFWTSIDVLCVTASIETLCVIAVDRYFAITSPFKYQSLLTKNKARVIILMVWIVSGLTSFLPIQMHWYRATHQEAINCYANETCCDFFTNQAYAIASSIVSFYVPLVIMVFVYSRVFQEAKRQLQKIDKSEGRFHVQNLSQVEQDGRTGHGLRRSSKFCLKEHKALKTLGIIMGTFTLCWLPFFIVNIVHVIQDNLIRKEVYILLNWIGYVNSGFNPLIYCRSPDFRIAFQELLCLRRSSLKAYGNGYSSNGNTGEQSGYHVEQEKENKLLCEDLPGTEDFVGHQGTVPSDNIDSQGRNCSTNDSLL
T1 sequence (Q13639 1-387 isoform Q13639-2, species assumed): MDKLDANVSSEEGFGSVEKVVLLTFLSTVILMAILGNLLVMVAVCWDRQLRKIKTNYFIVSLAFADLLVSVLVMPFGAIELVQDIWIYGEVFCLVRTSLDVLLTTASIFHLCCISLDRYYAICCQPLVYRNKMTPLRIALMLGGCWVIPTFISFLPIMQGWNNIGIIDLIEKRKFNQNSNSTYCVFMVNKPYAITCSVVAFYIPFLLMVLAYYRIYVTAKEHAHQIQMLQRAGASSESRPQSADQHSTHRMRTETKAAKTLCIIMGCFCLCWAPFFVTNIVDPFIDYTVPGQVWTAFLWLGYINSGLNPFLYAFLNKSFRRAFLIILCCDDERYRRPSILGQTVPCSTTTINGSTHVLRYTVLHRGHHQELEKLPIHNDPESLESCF
T4 sequence (P21728 whole entry): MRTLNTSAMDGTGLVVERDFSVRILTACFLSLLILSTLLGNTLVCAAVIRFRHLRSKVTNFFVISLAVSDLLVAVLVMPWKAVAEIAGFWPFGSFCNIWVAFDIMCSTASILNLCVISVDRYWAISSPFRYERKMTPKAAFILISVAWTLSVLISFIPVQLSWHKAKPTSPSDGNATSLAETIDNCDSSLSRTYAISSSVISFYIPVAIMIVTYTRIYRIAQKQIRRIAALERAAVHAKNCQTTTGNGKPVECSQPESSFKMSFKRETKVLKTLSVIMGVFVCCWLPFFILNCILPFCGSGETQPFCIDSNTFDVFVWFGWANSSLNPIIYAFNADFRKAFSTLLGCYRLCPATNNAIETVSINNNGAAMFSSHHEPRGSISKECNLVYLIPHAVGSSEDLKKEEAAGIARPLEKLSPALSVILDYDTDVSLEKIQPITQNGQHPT
T5 sequence (P35462 whole entry): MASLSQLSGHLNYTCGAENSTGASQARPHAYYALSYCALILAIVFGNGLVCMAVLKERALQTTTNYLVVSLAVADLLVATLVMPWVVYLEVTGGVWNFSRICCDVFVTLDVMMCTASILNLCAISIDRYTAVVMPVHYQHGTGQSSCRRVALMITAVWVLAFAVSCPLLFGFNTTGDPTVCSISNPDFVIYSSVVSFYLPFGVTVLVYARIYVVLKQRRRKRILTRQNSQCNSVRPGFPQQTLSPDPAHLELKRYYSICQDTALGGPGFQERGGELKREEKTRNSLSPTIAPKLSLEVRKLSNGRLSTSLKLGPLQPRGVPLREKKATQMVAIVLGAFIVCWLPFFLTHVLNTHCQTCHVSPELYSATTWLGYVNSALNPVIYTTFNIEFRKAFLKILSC
T6 sequence (P21918 whole entry): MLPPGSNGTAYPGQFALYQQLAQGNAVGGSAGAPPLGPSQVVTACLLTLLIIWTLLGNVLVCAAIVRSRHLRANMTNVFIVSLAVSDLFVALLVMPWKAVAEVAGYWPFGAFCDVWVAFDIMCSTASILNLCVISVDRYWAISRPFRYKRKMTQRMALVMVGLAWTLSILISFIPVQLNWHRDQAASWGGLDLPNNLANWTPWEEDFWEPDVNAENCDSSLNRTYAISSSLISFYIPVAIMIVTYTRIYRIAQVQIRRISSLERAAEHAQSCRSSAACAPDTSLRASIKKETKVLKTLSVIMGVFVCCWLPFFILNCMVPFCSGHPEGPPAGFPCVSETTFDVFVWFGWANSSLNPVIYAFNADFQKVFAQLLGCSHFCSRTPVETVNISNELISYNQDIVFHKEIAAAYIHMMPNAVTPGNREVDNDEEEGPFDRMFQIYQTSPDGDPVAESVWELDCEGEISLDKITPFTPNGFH
T8 sequence (P25103 whole entry): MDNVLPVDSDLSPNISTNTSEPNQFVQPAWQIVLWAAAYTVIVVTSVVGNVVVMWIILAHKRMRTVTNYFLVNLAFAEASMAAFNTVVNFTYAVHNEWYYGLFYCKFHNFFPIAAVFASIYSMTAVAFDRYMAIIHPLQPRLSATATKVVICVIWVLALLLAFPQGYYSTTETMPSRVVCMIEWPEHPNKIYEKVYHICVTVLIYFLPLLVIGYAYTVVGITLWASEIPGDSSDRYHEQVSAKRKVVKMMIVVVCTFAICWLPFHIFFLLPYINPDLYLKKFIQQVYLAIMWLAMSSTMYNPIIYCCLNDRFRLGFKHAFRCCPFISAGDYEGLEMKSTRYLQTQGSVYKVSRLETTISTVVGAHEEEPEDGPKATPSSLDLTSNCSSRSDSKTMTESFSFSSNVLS
T9 sequence (P37288 whole entry): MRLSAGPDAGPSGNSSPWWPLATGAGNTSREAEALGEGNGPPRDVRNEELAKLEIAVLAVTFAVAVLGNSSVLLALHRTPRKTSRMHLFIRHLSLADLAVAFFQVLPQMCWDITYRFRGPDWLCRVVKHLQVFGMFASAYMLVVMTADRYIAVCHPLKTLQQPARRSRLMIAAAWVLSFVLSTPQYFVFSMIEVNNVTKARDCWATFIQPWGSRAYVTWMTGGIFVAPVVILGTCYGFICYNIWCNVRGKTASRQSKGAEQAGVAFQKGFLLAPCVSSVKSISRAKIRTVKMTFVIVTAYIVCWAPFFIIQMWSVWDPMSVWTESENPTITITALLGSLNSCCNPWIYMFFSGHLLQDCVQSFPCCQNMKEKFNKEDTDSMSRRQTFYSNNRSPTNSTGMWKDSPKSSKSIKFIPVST
T3 sequence (P32238 whole entry): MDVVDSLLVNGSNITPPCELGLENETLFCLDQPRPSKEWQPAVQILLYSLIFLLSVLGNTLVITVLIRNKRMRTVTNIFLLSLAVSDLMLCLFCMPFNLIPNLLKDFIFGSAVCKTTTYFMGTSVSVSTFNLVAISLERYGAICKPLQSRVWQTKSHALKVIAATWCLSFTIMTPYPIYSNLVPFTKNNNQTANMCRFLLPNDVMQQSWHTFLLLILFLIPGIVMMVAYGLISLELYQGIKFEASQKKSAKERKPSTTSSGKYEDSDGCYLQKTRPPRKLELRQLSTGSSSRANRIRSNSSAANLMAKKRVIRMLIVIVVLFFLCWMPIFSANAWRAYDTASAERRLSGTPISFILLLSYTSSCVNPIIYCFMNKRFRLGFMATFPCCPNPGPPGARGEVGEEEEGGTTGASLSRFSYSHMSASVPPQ

EC50 (5-HT4; agonist): > 3.16 µM
IC50 (5-HT4; inverse agonist): > 3.16 µM
IC50 (5-HT6; Inv. Agonist): 0.158 µM
EC50 (5-HT6; agonist): > 3.16 µM
EC50 (CCK-A): > 3.16 µM
EC50 (D1; agonist): > 3.16 µM
IC50 (D1; antagonist): > 3.16 µM
EC50 (D3; agonist): > 3.16 µM
IC50 (D3; antagonist): > 3.16 µM
EC50 (D5; agonist): > 3.16 µM
IC50 (D5; antagonist): > 3.16 µM
IC50 (Histamine 1; Inv. Agonist): > 3.16 µM
EC50 (Histamine 1; agonist): > 3.16 µM
EC50 (NK-1): > 3.16 µM
EC50 (Vasopressin1A): > 3.16 µM
EC50 (alpha 2C; agonist): > 3.16 µM
IC50 (alpha 2C; antagonist): > 3.16 µM
EC50 (beta 2; agonist): > 3.16 µM
IC50 (beta 2; antagonist): > 3.16 µM
EC50 (m1; agonist): > 3.16 µM
IC50 (m1; antagonist): > 3.16 µM
EC50 (m3; agonist): > 3.16 µM
IC50 (m3; antagonist): > 3.16 µM
SMILES: COc1ccc(CC(=O)N(Cc2ccc(C)cc2)C2CCN(C)CC2)cc1 [Example 50ELH27, 2-(4-Methoxyphenyl)-N-(4-methylbenzyl)-N-(1-methylpiperidin-4-yl)acetamide]
